Test results from ChEMBL document CHEMBL5390205, “Acidonemycins A-C, Glycosylated Angucyclines with Antivirulence Activity Produced by the Acidic Culture of Streptomyces indonesiensis” (J Nat Prod, 2023).
Activity calls are given as the source filed them. The calls are words filed in the database; no cut-off is given here.

Assays:
Assay type in all cases: functional, organism-based
Conditions in all cases: dose 0-100 µg/ml
Staphylococcus aureus [1] = test: Antivirulence activity against methicillin-resistant Staphylococcus aureus USA300 LAC assessed as inhibition of phenol-soluble modulin alpha1-4 production incubated for 22 hrs by LC-MS analysis
Staphylococcus aureus [2] = test: Antivirulence activity against methicillin-resistant Staphylococcus aureus USA300 LAC assessed as inhibition of delta toxin production incubated for 22 hrs by LC-MS analysis
Staphylococcus aureus [3] = test: Antivirulence activity against methicillin-resistant Staphylococcus aureus USA300 LAC assessed as inhibition of biofilm formation incubated for 22 hrs by crystal violet staining based assay

SMILES: COC(=O)[C@H]1O[C@@H](Oc2cccc3c2C(=O)c2ccc4c(c2C3=O)C(=O)C[C@@H](C)C4)[C@H](O)[C@@H](O)[C@@H]1O
- Activity (Staphylococcus aureus [1]): Dose-Dependent Effect
- Activity (Staphylococcus aureus [2]): Dose-Dependent Effect
- Activity (Staphylococcus aureus [3]): Dose-Dependent Effect

SMILES: C[C@@H]1CC(=O)c2c(ccc3c2C(=O)c2cccc(O[C@@H]4O[C@H](C(=O)O)[C@@H](O)[C@H](O)[C@H]4O)c2C3=O)C1
- Activity (Staphylococcus aureus [1]): Dose-Dependent Effect
- Activity (Staphylococcus aureus [2]): Dose-Dependent Effect
- Activity (Staphylococcus aureus [3]): Dose-Dependent Effect

SMILES: COC(=O)[C@H]1O[C@@H](Oc2cccc3c2C(=O)O[C@H]3c2c(O)ccc3c2C(=O)C[C@@H](C)C3)[C@H](O)[C@@H](O)[C@@H]1O
- Activity (Staphylococcus aureus [1]): inactive
- Activity (Staphylococcus aureus [2]): inactive
- Activity (Staphylococcus aureus [3]): inactive
